Data published in patent publication EP1497262B1, “ACYL-4-CARBOXYPHENYLUREA DERIVATIVES, METHOD FOR PRODUCTION AND USE THEREOF” (Sanofi-Aventis Deutschland GmbH, priority 2002, dated 2003).

Biological target: T1, Humane Glykogenphosphorylase a (Homo sapiens, UniProt P06737)
T1 sequence (P06737 1-847): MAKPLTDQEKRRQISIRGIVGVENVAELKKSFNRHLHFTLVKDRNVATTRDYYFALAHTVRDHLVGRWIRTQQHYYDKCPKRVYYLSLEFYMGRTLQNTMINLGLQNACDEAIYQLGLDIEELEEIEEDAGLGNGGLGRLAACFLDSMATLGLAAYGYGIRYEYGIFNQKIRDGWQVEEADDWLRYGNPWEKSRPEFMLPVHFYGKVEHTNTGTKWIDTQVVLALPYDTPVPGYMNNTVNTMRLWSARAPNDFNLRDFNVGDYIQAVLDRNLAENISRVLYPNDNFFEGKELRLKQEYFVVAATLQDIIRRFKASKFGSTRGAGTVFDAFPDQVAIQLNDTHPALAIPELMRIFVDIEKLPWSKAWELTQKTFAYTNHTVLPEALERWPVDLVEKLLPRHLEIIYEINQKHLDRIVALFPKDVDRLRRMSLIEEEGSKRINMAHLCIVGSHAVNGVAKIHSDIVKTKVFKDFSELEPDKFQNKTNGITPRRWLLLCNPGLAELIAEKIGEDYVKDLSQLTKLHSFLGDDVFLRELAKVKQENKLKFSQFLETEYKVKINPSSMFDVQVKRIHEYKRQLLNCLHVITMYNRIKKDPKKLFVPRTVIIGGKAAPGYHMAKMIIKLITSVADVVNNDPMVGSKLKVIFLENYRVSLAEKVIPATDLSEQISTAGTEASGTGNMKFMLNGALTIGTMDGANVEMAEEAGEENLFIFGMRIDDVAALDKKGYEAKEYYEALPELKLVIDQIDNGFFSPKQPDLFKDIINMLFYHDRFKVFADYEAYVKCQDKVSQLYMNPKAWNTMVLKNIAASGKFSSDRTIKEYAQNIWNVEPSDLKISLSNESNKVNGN
Assay: Glycogen phosphorylase a activity test (reverse direction, release of inorganic phosphate)
Format: biochemical
Conditions: 10 µM test substance, in vitro, 40 min at room temperature, absorbance at 820 nm; for inhibition at 10 µM: read-out: % Inhibition bei 10 µM
Description: Glykogenphosphorylase a Aktivitätstest
Der Effekt von Verbindungen auf die Aktivität der aktiven Form der Glykogenphosphorylase (GPa) wurde in der umgekehrten Richtung, durch Verfolgen der Glykogensynthese aus Glukose-1-Phosphat an Hand der Bestimmung der Freisetzung von anorganischem Phosphat, gemessen.
Prüfsubstanzen wurden als 10 mM Lösung in DMSO zubereitet und auf 50 µM mit Pufferlösung T verdünnt. Zu 10 µl dieser Lösung wurden 10 µl 37,5 mM Glukose, gelöst in Pufferlösung T und 5 mg/mL Glykogen, sowie 10 µl einer Lösung von humaner Glykogenphosphorylase a ([…]) und 20 µl Glukose-1-Phosphat, 2,5 mM zugegeben. Der basale Wert der Glykogenphosphorylase a Aktivität in Abwesenheit von Prüfsubstanz wurde durch Zugabe von 10 µl Pufferlösung T (0,1 % DMSO) bestimmt. […] Zur Bestimmung der Hintergrundsabsorption wurde in einem separaten Ansatz die Stop-Lösung unmittelbar nach Zugabe der Glukose-1-Phosphatlösung zugegeben.
Dieser Test wurde mit einer Konzentrationen von 10 µM der Prüfsubstanz durchgeführt, um die jeweilige Hemmung der Glykogenphosphorylase a in vitro durch die Prüfsubstanz zu bestimmen. Tabelle 2: Biologische Aktivität

SMILES | inhibition at 10 µM | % Inhibition bei 10 µM
CCOC(=O)c1ccc(NC(=O)NC(=O)c2c(F)cccc2F)cc1 [Vergleichsbeispiel A, reference compound] | 3% | –
O=C(NC(=O)c1ccccc1Cl)Nc1ccc(C(=O)O)cc1[N+](=O)[O-] [compound 1] | 71% | –
O=C(NC(=O)c1ccc(Cl)cc1Cl)Nc1ccc(C(=O)O)cc1[N+](=O)[O-] [compound 2] | 85% | –
O=C(NC(=O)c1ccc(Cl)cc1Cl)Nc1ccc(C(=O)O)cc1O [compound 5] | 80% | –
NC(CO)(CO)CO.O=C(NC(=O)c1cc(F)c(F)cc1Cl)Nc1ccc(C(=O)O)cc1OC(F)(F)F [compound 49, 4-[3-(2-Chlor-4,5-difluor-benzoyl)-ureido]-3-trifluoromethoxy-benzoesäure TRIS-Salz] | – | 103%
